Assay results reported in patent publication US20110288154A1, “RNA Interference Mediated Inhibition of Epithelial Sodium Channel (ENaC) Gene Expression Using Short Interfering Nucleic Acid (siNA)” (MERCK & CO., INC., priority 2008, published 2011).
[invAb] = inverted abasic unit; d = 2'-deoxy (DNA); m = 2'-O-methyl; r = 2'-OH (RNA); f = 2'-fluoro

Legend:
[1] = test system: mSCNN1A mRNA; assay: Screening of ENaCα siNAs in mouse NIH 3T3 cells (quantitative RT-PCR); format: cell-based; design: Percent Reduction of the mSCNN1A mRNA relative to a non-targeting control siNA / Mouse % KD (efficacy of ENaCα mRNA knockdown): concentration or dose not given beside the values; conditions: for Mean (mSCNN1A expression normalized to the level of m36B4) / Percent Reduction of the mSCNN1A mRNA relative to a non-targeting control siNA / Avg ENaCα Expression (mSCNN1A) / Avg 36B4 Expression: mouse NIH 3T3 cells, n = 3; for Mean (mSCNN1A expression normalized to the level of m36B4) / Percent Reduction of the mSCNN1A mRNA relative to a non-targeting control siNA / Avg 36B4 Expression: 24 hours post-transfection; for Avg ENaCα Expression (mSCNN1A): harvested 24 hours post-transfection; for Avg 36B4 Expression: housekeeping gene used for normalisation
Protocol: siNA constructs (Table 1b) may be tested for efficacy in reducing ENaC RNA expression in, for example, A549 human lung carcinoma cells. A549 (human; ATCC cat# CCL-185) cells were cultured at 37° C. in the presence of 5% CO2 and grown in Ham's F12K medium with 2 mM L-glutamine adjusted to contain 1.5 g/L sodium bicarbonate and supplemented with fetal bovine serum at a final concentration of 10% and 100 U/mL penicillin. The A549 cells were plated approximately 24 hours before transfection in 96-well plates at 7,500 cells/well, 100 μl/well. After 24 hours complexes containing siNA and Lipofectamine 2000 (Invitrogen) were created as follows: a solution of Lipofectamine 2000 in OPTI-MEM was prepared containing Lipofectamine 2000 at a final concentration of 14 μg/ml. In parallel, solutions of the siNAs were prepared in OPTI-MEM at a final concentration of 150 nM. After both solutions were incubated at 20° C. for 20 minutes an equal volume of the siNA solutions and the Lipofectamine 2000 solution were added together for each of the siNAs. The resultant solution has the siNAs at a final concentration of 75 nM and Lipofectamine 2000 at a final concentration of 7 μg/ml. This solution was incubated at 20° C. for 20 minutes. After incubation 50 μl of the solution were added to each of the wells (in triplicate). The final concentration of siNA in each well was 25 nM and the final concentration of Lipofectamine 2000 in each well was 2.33 μg/ml. The plates were incubated for 48 hours with no change of media before harvesting. Dose response curves were determined in a similar manner with each concentration being done in triplicate and maintaining a constant amount of Lipofectamine 2000 in each transfection.
(§1) A series of probes and primers were used to detect the various mRNA transcripts of the genes of ENaCa and GAPDH in mouse, rat, and human cell lines. The assays were performed on an ABI 7500 instrument, according to the manufacturer's instructions. Within each experiment, the baseline was set in the exponential phase of the amplification curve, and based on the intersection point of the baselines with the amplification curve, a Ct value was assigned by the instrument. This Ct value was then assigned a QTY value based on the Standard Curve. The standard curve in the various experiments herein used 1 ng to 300 ng of RNA extracted from the same cell line used for the experimental transfections.
(§2) All IC50 values were calculated from the data using GraphPad Prizm software, specifically a sigmoidal, variable slope curve for simple ligand binding. Also, unless otherwise indicated, all calculations of the efficacy and potency (e.g., % knockdown) of the siNAs were done relative to a non-targeting control siNA. If reported, P-values were computed using The Students t-test, including the Welch Correction for unequal variances.
(§3) In all of the calculations of the % knock-down of mRNA, the calculation was made relative to the normalized level of expression of the gene of interest in the samples treated with the non-targeting control (NTC) unless otherwise indicated. The gene of interest expression level was divided by the level of expression of GAPDH or 36B4 (depending on the species) in each sample. The three replicates for each condition in each experiment were averaged and the standard deviation of those samples was calculated. The following formula was then used to calculate the % of knock-down of the gene of interest:
(§4) The ENaCα siNAs were designed and synthesized as described previously. The siNAs were screened in three cell lines. Human A549 cells, mouse NIH 3T3 and Rat H-4-II-E cells. The data from the screen of ENaCa siNAs in all three species is shown in Tables 3a, 3b, 4a, 4b, 5a, and 5b and a summary of the data for certain siNA molecules is presented in Table 6. Each screen was performed at 24 hrs. The decision to use this time point was based upon the degree of knockdown of the mRNA seen at that time point.

[2] = test system: rSCNN1A (r ENaCα) mRNA; assay: Screening of ENaCα siNAs in Rat H-4-II-E cells (quantitative RT-PCR); format: cell-based; design: Percent Reduction of the r ENaCα mRNA relative to a non-targeting control siNA (NTCs) / Rat % KD (efficacy of ENaCα mRNA knockdown): concentration or dose not given beside the values; conditions: for Mean (rSCNN1A expression normalized to the level of rGAPDH) / Percent Reduction of the r ENaCα mRNA relative to a non-targeting control siNA (NTCs) / Avg ENaCα Expression (rSCNN1A) / Avg GAPDH Expression (rGAPDH): Rat H-4-II-E cells, n = 3; for Mean (rSCNN1A expression normalized to the level of rGAPDH) / Percent Reduction of the r ENaCα mRNA relative to a non-targeting control siNA (NTCs) / Avg GAPDH Expression (rGAPDH): 24 hours post-transfection; for Avg ENaCα Expression (rSCNN1A): harvested 24 hours post-transfection; for Avg GAPDH Expression (rGAPDH): housekeeping gene used for normalisation
Protocol: as §1, §2, §3, §4

Substance: B cuccuGuccAAccuGGGcA TTB / UGCccAGGuuGGAcAGGAGUU (sense CUCCUGUCCAACCUGGGCATT; antisense UGCCCAGGUUGGACAGGAGUU; siRNA; sense: DNA at AGT, 2'-fluoro at CU, [invAb] at 5' end, 3' end, backbone not given here; antisense: sugars from the 5' end rrrffmmmffmmmfmmmmmmm, backbone not given here) [Site 1738]
- Mean (mSCNN1A expression normalized to the level of m36B4) [1]: 0.13
- Percent Reduction of the mSCNN1A mRNA relative to a non-targeting control siNA [1]: 5.1%
- Avg ENaCα Expression (mSCNN1A) [1]: 2.63
- Avg 36B4 Expression [1]: 20.59
- Mean (rSCNN1A expression normalized to the level of rGAPDH) [2]: 0.63
- Percent Reduction of the r ENaCα mRNA relative to a non-targeting control siNA (NTCs) [2]: 31.1%
- Avg ENaCα Expression (rSCNN1A) [2]: 21.90
- Avg GAPDH Expression (rGAPDH) [2]: 35.43

Substance: B GuccAAccuGGGcAGccAG TTB / CUGGcuGcccAGGuuGGAcUU (sense GUCCAACCUGGGCAGCCAGTT; antisense CUGGCUGCCCAGGUUGGACUU; siRNA; sense: DNA at AGT, 2'-fluoro at CU, [invAb] at 5' end, 3' end, backbone not given here; antisense: sugars from the 5' end rmmmffmfffmmmffmmmfmm, backbone not given here) [Site 1743]
- Mean (mSCNN1A expression normalized to the level of m36B4) [1]: 0.13
- Percent Reduction of the mSCNN1A mRNA relative to a non-targeting control siNA [1]: 6.7%
- Avg ENaCα Expression (mSCNN1A) [1]: 2.87
- Avg 36B4 Expression [1]: 22.47
- Mean (rSCNN1A expression normalized to the level of rGAPDH) [2]: 0.52
- Percent Reduction of the r ENaCα mRNA relative to a non-targeting control siNA (NTCs) [2]: 43.9%
- Avg ENaCα Expression (rSCNN1A) [2]: 22.13
- Avg GAPDH Expression (rGAPDH) [2]: 42.82

Substance: B AAccuGGGcAGccAGuGGA TTB / UCCAcuGGcuGcccAGGuuUU (sense AACCUGGGCAGCCAGUGGATT; antisense UCCACUGGCUGCCCAGGUUUU; siRNA; sense: sugars from the 5' end ddfffdddfddffddfddrdd, [invAb] at 5' end, 3' end, backbone not given here; antisense: sugars from the 5' end rrrmffmmffmfffmmmffmm, backbone not given here) [Site 1747]
- Mean (mSCNN1A expression normalized to the level of m36B4) [1]: 0.15
- Percent Reduction of the mSCNN1A mRNA relative to a non-targeting control siNA [1]: −6.1%
- Avg ENaCα Expression (mSCNN1A) [1]: 3.67
- Avg 36B4 Expression [1]: 25.19
- Mean (rSCNN1A expression normalized to the level of rGAPDH) [2]: 0.56
- Percent Reduction of the r ENaCα mRNA relative to a non-targeting control siNA (NTCs) [2]: 39.5%
- Avg ENaCα Expression (rSCNN1A) [2]: 23.39
- Avg GAPDH Expression (rGAPDH) [2]: 41.88

Substance: B cccuGcuGuccAcAGuGAc TTB / GUCAcuGuGGAcAGcAGGGUU (sense CCCUGCUGUCCACAGUGACTT; antisense GUCACUGUGGACAGCAGGGUU; siRNA; sense: DNA at AGT, 2'-fluoro at CU, [invAb] at 5' end, 3' end, backbone not given here; antisense: sugars from the 5' end rrrmffmfmmmfmmfmmmmmm, backbone not given here) [Site 1121]
- Mean (mSCNN1A expression normalized to the level of m36B4) [1]: 0.27
- Percent Reduction of the mSCNN1A mRNA relative to a non-targeting control siNA [1]: −14.5%
- Avg ENaCα Expression (mSCNN1A) [1]: 3.39
- Avg 36B4 Expression [1]: 11.45
- Mean (rSCNN1A expression normalized to the level of rGAPDH) [2]: 0.84
- Percent Reduction of the r ENaCα mRNA relative to a non-targeting control siNA (NTCs) [2]: 34.6%
- Avg ENaCα Expression (rSCNN1A) [2]: 19.44
- Avg GAPDH Expression (rGAPDH) [2]: 23.01

Substance: B GGGcAGccAGuGGAGccuG TTB / CAGGcuccAcuGGcuGcccUU (sense GGGCAGCCAGUGGAGCCUGTT; antisense CAGGCUCCACUGGCUGCCCUU; siRNA; sense: DNA at AGT, 2'-fluoro at CU, [invAb] at 5' end, 3' end, backbone not given here; antisense: sugars from the 5' end rrrmffffmffmmffmfffmm, backbone not given here) [Site 1752]
- Mean (mSCNN1A expression normalized to the level of m36B4) [1]: 0.11
- Percent Reduction of the mSCNN1A mRNA relative to a non-targeting control siNA [1]: 19.8%
- Avg ENaCα Expression (mSCNN1A) [1]: 3.21
- Avg 36B4 Expression [1]: 29.27
- Mean (rSCNN1A expression normalized to the level of rGAPDH) [2]: 0.44
- Percent Reduction of the r ENaCα mRNA relative to a non-targeting control siNA (NTCs) [2]: 52.1%
- Avg ENaCα Expression (rSCNN1A) [2]: 19.23
- Avg GAPDH Expression (rGAPDH) [2]: 43.83

Substance: B ccAuccGccuGGuGuGcuc TTB / GAGcAcAccAGGcGGAuGGUU (chain 1 CCAUCCGCCUGGUGUGCUCTT; chain 2 GAGCACACCAGGCGGAUGGUU; siRNA; chain 1: DNA at AGT, 2'-fluoro at CU, [invAb] at 5' end, 3' end, backbone not given here; chain 2: sugars from the 5' end rrrfmfmffmmmfmmmfmmmm, backbone not given here) [Site 311]
- Mean (mSCNN1A expression normalized to the level of m36B4) [1]: 0.23
- Percent Reduction of the mSCNN1A mRNA relative to a non-targeting control siNA [1]: 4.6%
- Avg ENaCα Expression (mSCNN1A) [1]: 3.83
- Avg 36B4 Expression [1]: 16.80
- Mean (rSCNN1A expression normalized to the level of rGAPDH) [2]: 0.83
- Percent Reduction of the r ENaCα mRNA relative to a non-targeting control siNA (NTCs) [2]: 35.2%
- Avg ENaCα Expression (rSCNN1A) [2]: 16.42
- Avg GAPDH Expression (rGAPDH) [2]: 19.71

Substance: B AGuGuGGcuGuGccuAcAu TTB / AUGuAGGcAcAGccAcAcuUU (sense AGUGUGGCUGUGCCUACAUTT; antisense AUGUAGGCACAGCCACACUUU; siRNA; sense: DNA at AGT, 2'-fluoro at CU, [invAb] at 5' end, 3' end, backbone not given here; antisense: sugars from the 5' end rrrfmmmfmfmmffmfmffmm, backbone not given here) [Site 1382]
- Mean (mSCNN1A expression normalized to the level of m36B4) [1]: 0.21
- Percent Reduction of the mSCNN1A mRNA relative to a non-targeting control siNA [1]: 10.7%
- Avg ENaCα Expression (mSCNN1A) [1]: 2.94
- Avg 36B4 Expression [1]: 13.77
- Mean (rSCNN1A expression normalized to the level of rGAPDH) [2]: 0.84
- Percent Reduction of the r ENaCα mRNA relative to a non-targeting control siNA (NTCs) [2]: 34.5%
- Avg ENaCα Expression (rSCNN1A) [2]: 22.02
- Avg GAPDH Expression (rGAPDH) [2]: 26.11

Substance: B GuGuGGcuGuGccuAcAuc TTB / GAUGuAGGcAcAGccAcAcUU (sense GUGUGGCUGUGCCUACAUCTT; antisense GAUGUAGGCACAGCCACACUU; siRNA; B caps on sense ends, letter-case modifications not given here, further chemistry not given here) [Site 1383]
- Mean (mSCNN1A expression normalized to the level of m36B4) [1]: 0.04
- Percent Reduction of the mSCNN1A mRNA relative to a non-targeting control siNA [1]: 82.4%
- Avg ENaCα Expression (mSCNN1A) [1]: 0.91
- Avg 36B4 Expression [1]: 14.23
- IC50 ([1]; mouse cell line, dose response, read-out: Mouse IC50 (potency of ENaCα mRNA knockdown)): 3 nM
- Mouse % KD (efficacy of ENaCα mRNA knockdown) ([1]; mouse cell line, summary): 82%
- Mean (rSCNN1A expression normalized to the level of rGAPDH) [2]: 0.63
- Percent Reduction of the r ENaCα mRNA relative to a non-targeting control siNA (NTCs) [2]: 50.7%
- Avg ENaCα Expression (rSCNN1A) [2]: 15.01
- Avg GAPDH Expression (rGAPDH) [2]: 23.52
- IC50 ([2]; rat cell line, dose response, read-out: Rat IC50 (potency of ENaCα mRNA knockdown)): 1 nM
- Rat % KD (efficacy of ENaCα mRNA knockdown) ([2]; rat cell line, summary): 50%
